# Tested on: MV-4-11 cells
# Assay: Gene expression microarray analysis (Affymetrix PrimeView) and GSEA
# Format: cell-based, human
# Set-up: RFU PODN (11730768_x_at) / Fold change /veh PODN (11730768_x_at) / RFU LINC00158 (11744669_a_at) / Fold change /veh LINC00158 (11744669_a_at) / RFU DUSP10 (11751237_a_at) / Fold change /veh DUSP10 (11751237_a_at) / RFU ID3 (11757404_x_at) / Fold change /veh ID3 (11757404_x_at) / RFU PLEKHG5 (11737974_s_at) / Fold change /veh PLEKHG5 (11737974_s_at) / RFU LRRC4B (11730491_at) / Fold change /veh LRRC4B (11730491_at) / RFU GIMAP4 (11747438_a_at) / Fold change /veh GIMAP4 (11747438_a_at) / RFU KRT8 (11758183_x_at) / Fold change /veh KRT8 (11758183_x_at) / RFU CNN1 (11734310_a_at) / Fold change /veh CNN1 (11734310_a_at) / RFU VPS37D (11726825_at) / Fold change /veh VPS37D (11726825_at) / RFU C10orf10 (11716522_x_at) / Fold change /veh C10orf10 (11716522_x_at) / RFU KIR2DL2 /// KIR2DL4 /// KIR2DL5A /// KIR2DL5B /// KIR2DS1 /// KIR2DS2 /// KIR2DS3 /// KIR2DS4 /// KIR3DL3 /// KIR3DL3 /// KIR3DS1 (11738374_at) / Fold change /veh KIR2DL2 /// KIR2DL4 /// KIR2DL5A /// KIR2DL5B /// KIR2DS1 /// KIR2DS2 /// KIR2DS3 /// KIR2DS4 /// KIR3DL3 /// KIR3DL3 /// KIR3DS1 (11738374_at) / RFU C1QL1 (11718748_at) / Fold change /veh C1QL1 (11718748_at) / RFU TMPRSS4 (11747572_a_at) / Fold change /veh TMPRSS4 (11747572_a_at) / RFU HAMP (11756126_x_at) / Fold change /veh HAMP (11756126_x_at) / RFU RNFT2 (11725882_a_at) / Fold change /veh RNFT2 (11725882_a_at) / RFU NR4A2 (11747474_a_at) / Fold change /veh NR4A2 (11747474_a_at) / RFU ABCC12 (11746883_a_at) / Fold change /veh ABCC12 (11746883_a_at) / RFU TMEM136 (11760407_x_at) / Fold change /veh TMEM136 (11760407_x_at) / RFU CLDN22 /// WWC2 (11732394_at) / Fold change /veh CLDN22 /// WWC2 (11732394_at) / RFU HLA-DPB1 (11760878_x_at) / Fold change /veh HLA-DPB1 (11760878_x_at) / RFU SPINT1 (11716480_a_at) / Fold change /veh SPINT1 (11716480_a_at) / RFU GAP43 (11754022_s_at) / Fold change /veh GAP43 (11754022_s_at) / RFU A4GNT (11735810_at) / Fold change /veh A4GNT (11735810_at) / RFU PRB3 (11715151_x_at) / Fold change /veh PRB3 (11715151_x_at) / RFU TUBB4B (11761932_at) / Fold change /veh TUBB4B (11761932_at) / RFU CAPN14 (11732068_a_at) / Fold change /veh CAPN14 (11732068_a_at) / RFU TMCC2 (11721928_a_at) / Fold change /veh TMCC2 (11721928_a_at) / RFU IRGQ (11745062_a_at) / Fold change /veh IRGQ (11745062_a_at) / RFU FAM174B (11720279_a_at) / Fold change /veh FAM174B (11720279_a_at) / RFU TMPRSS4 (11748680_a_at) / Fold change /veh TMPRSS4 (11748680_a_at) / RFU FAM212B (11763350_a_at) / Fold change /veh FAM212B (11763350_a_at) / RFU PLEKHG5 (11743358_a_at) / Fold change /veh PLEKHG5 (11743358_a_at) / RFU ZSCAN30 (11745921_a_at) / Fold change /veh ZSCAN30 (11745921_a_at) / RFU CMKLR1 (11741424_a_at) / Fold change /veh CMKLR1 (11741424_a_at) / RFU LOC101060620 /// MAPK8IP1 (11723275_at) / Fold change /veh LOC101060620 /// MAPK8IP1 (11723275_at) / RFU SPTSSB (11747773_x_at) / Fold change /veh SPTSSB (11747773_x_at) / RFU PRSS12 (11739890_at) / Fold change /veh PRSS12 (11739890_at) / RFU BIN1 (11741810_x_at) / Fold change /veh BIN1 (11741810_x_at) / RFU WNT11 (11732464_a_at) / Fold change /veh WNT11 (11732464_a_at) / RFU C10orf10 (11716521_a_at) / Fold change /veh C10orf10 (11716521_a_at) / RFU C5orf56 (11738089_at) / Fold change /veh C5orf56 (11738089_at) / RFU CYB561 (11721691_x_at) / Fold change /veh CYB561 (11721691_x_at) / RFU ANKRD19P (11752326_a_at) / Fold change /veh ANKRD19P (11752326_a_at) / RFU OR2T12 /// OR2T33 /// OR2T8 (11738714_s_at) / Fold change /veh OR2T12 /// OR2T33 /// OR2T8 (11738714_s_at) / RFU VCAN (11748164_a_at) / Fold change /veh VCAN (11748164_a_at) / RFU JSRP1 (11732532_at) / Fold change /veh JSRP1 (11732532_at) / RFU KRTAP10-11 (11738290_x_at) / Fold change /veh KRTAP10-11 (11738290_x_at) / RFU MYO3A (11730013_a_at) / Fold change /veh MYO3A (11730013_a_at) / RFU EBF3 (11725865_a_at) / Fold change /veh EBF3 (11725865_a_at) / RFU CAMK2N1 (11719241_x_at) / Fold change /veh CAMK2N1 (11719241_x_at) / RFU C5orf56 (11738088_a_at) / Fold change /veh C5orf56 (11738088_a_at) / RFU OLFML3 (11715873_a_at) / Fold change /veh OLFML3 (11715873_a_at) / RFU LOC100653217 /// NTM (11731650_a_at) / Fold change /veh LOC100653217 /// NTM (11731650_a_at) / RFU MAPK11 (11762145_a_at) / Fold change /veh MAPK11 (11762145_a_at) / RFU FIZ1 (11724087_x_at) / Fold change /veh FIZ1 (11724087_x_at) / RFU OASL (11726364_x_at) / Fold change /veh OASL (11726364_x_at) / RFU SOX15 (11748057_x_at) / Fold change /veh SOX15 (11748057_x_at) / RFU CD79A (11719716_a_at) / Fold change /veh CD79A (11719716_a_at) / RFU HIST1H1D (11736915_at) / Fold change /veh HIST1H1D (11736915_at) / RFU CASKIN2 (11723855_a_at) / Fold change /veh CASKIN2 (11723855_a_at) / RFU LOC730098 (11760151_x_at) / Fold change /veh LOC730098 (11760151_x_at) / RFU OR4N2 (11742367_at) / Fold change /veh OR4N2 (11742367_at) / RFU PRRT2 (11749266_a_at) / Fold change /veh PRRT2 (11749266_a_at) / RFU SNX32 (11753110_a_at) / Fold change /veh SNX32 (11753110_a_at) / RFU CDHR5 (11726645_a_at) / Fold change /veh CDHR5 (11726645_a_at) / RFU RCAN1 (11760418_a_at) / Fold change /veh RCAN1 (11760418_a_at) / RFU FAM167A (11723789_a_at) / Fold change /veh FAM167A (11723789_a_at) / RFU FAM26E (11764081_at) / Fold change /veh FAM26E (11764081_at) / RFU ISYNA1 (11749810_s_at) / Fold change /veh ISYNA1 (11749810_s_at) / RFU ACY1 (11761880_at) / Fold change /veh ACY1 (11761880_at) / RFU 11764098_at / Fold change /veh 11764098_at / RFU SAMD14 (11745864_x_at) / Fold change /veh SAMD14 (11745864_x_at) / RFU NPB (11741838_a_at) / Fold change /veh NPB (11741838_a_at) / RFU TMPRSS6 (11731388_a_at) / Fold change /veh TMPRSS6 (11731388_a_at) / RFU KRTAP10-2 (11738614_at) / Fold change /veh KRTAP10-2 (11738614_at) / RFU ARHGAP8 /// PRR5-ARHGAP8 (11727945_x_at) / Fold change /veh ARHGAP8 /// PRR5-ARHGAP8 (11727945_x_at) / RFU KRTAP5-7 /// NADSYN1 (11734609_at) / Fold change /veh KRTAP5-7 /// NADSYN1 (11734609_at) / RFU RASL12 (11751679_a_at) / Fold change /veh RASL12 (11751679_a_at) / RFU CDKN2B (11736163_a_at) / Fold change /veh CDKN2B (11736163_a_at) / RFU PRF1 (11729649_at) / Fold change /veh PRF1 (11729649_at) / RFU, ZNF638 /// ZNF638-IT1 / Fold change vs veh, ZNF638 /// ZNF638-IT1 / RFU, PANK3 / Fold change vs veh, PANK3 / RFU, SH3YL1 / Fold change vs veh, SH3YL1 / RFU, ZEB2 / Fold change vs veh, ZEB2 / RFU, NRIP1 / Fold change vs veh, NRIP1 / RFU, PTTG1IP / Fold change vs veh, PTTG1IP / RFU, CAPN2 / Fold change vs veh, CAPN2 / RFU, MED14 / Fold change vs veh, MED14 / RFU, SNORA58 / Fold change vs veh, SNORA58 / RFU, C1orf63 / Fold change vs veh, C1orf63 / RFU, LRRFIP1 / Fold change vs veh, LRRFIP1 / RFU, NDUFAF7 / Fold change vs veh, NDUFAF7 / RFU, SLC12A2 / Fold change vs veh, SLC12A2 / RFU, IBTK / Fold change vs veh, IBTK / RFU, ESF1 / Fold change vs veh, ESF1 / Fold change vs veh, TMEM50B / RFU, TAOK1 / Fold change vs veh, TAOK1 / RFU, ACBD3 / Fold change vs veh, ACBD3 / RFU, TMA16 / Fold change vs veh, TMA16 / RFU, RWDD3 / Fold change vs veh, RWDD3 / RFU, BCAT1 / Fold change vs veh, BCAT1 / RFU, EDEM3 / Fold change vs veh, EDEM3 / RFU, TMEM33 / Fold change vs veh, TMEM33 / RFU, WDR75 / Fold change vs veh, WDR75 / RFU, AHCTF1 / Fold change vs veh, AHCTF1 / RFU, TFRC / Fold change vs veh, TFRC / RFU, ZDHHC17 / Fold change vs veh, ZDHHC17 / RFU, NOM1 / Fold change vs veh, NOM1 / RFU, ARL8B / Fold change vs veh, ARL8B / RFU, ZBTB11 / Fold change vs veh, ZBTB11 / RFU, TAMM41 / Fold change vs veh, TAMM41 / RFU, KIAA1704 /// LOC100996395 / Fold change vs veh, KIAA1704 /// LOC100996395 / RFU, ING1 / Fold change vs veh, ING1 / RFU, TRMT61B / Fold change vs veh, TRMT61B / RFU, FUBP3 / Fold change vs veh, FUBP3 / RFU, TP53 / Fold change vs veh, TP53 / RFU, TNKS2 / Fold change vs veh, TNKS2 / RFU, ZFP14 / Fold change vs veh, ZFP14 / RFU, ACTR2 / Fold change vs veh, ACTR2 / RFU, PPP3R1 / Fold change vs veh, PPP3R1 / RFU, PIK3R1 / Fold change vs veh, PIK3R1 / RFU, HNRNPA1 / Fold change vs veh, HNRNPA1 / RFU, RNF170 / Fold change vs veh, RNF170 / RFU, ZNF28 / Fold change vs veh, ZNF28 / RFU, RNGTT / Fold change vs veh, RNGTT / RFU, OGT / Fold change vs veh, OGT / RFU, BRD1 / Fold change vs veh, BRD1 / RFU, MARS / Fold change vs veh, MARS / RFU, ZNF655 / Fold change vs veh, ZNF655 / RFU, FAHD1 / Fold change vs veh, FAHD1 / RFU, BDP1 / Fold change vs veh, BDP1 / RFU, LRRCC1 / Fold change vs veh, LRRCC1 / RFU, ARID1A / Fold change vs veh, ARID1A / RFU, ZNF146 / Fold change vs veh, ZNF146 / RFU, ZNF330 / Fold change vs veh, ZNF330 / RFU, GPN3 / Fold change vs veh, GPN3 / RFU, C9orf123 / Fold change vs veh, C9orf123 / RFU, N4BP2L2 / Fold change vs veh, N4BP2L2 / RFU, ARFIP1 / Fold change vs veh, ARFIP1 / RFU, FAM179B / Fold change vs veh, FAM179B / RFU, BCL10 / Fold change vs veh, BCL10 / RFU, UHRF1BP1L / Fold change vs veh, UHRF1BP1L / RFU, BET1 / Fold change vs veh, BET1 / RFU, CNOT2 / Fold change vs veh, CNOT2 / RFU, ZNF268 / Fold change vs veh, ZNF268 / Fold change vs veh, ZNF507 / RFU, DGCR2 / Fold change vs veh, DGCR2 / RFU, WDSUB1 / Fold change vs veh, WDSUB1 / Fold change vs veh, HSP90B1 /// MIR3652 / RFU, ADSS / Fold change vs veh, ADSS / RFU, GK / Fold change vs veh, GK / RFU, ZNF148 / Fold change vs veh, ZNF148 / RFU, TAF9 / Fold change vs veh, TAF9 / RFU, SLC1A5 / Fold change vs veh, SLC1A5 / RFU, SLMO2 / Fold change vs veh, SLMO2 / RFU, ABCC4 / Fold change vs veh, ABCC4 / RFU, LOC101060439 /// RAP1B / Fold change vs veh, LOC101060439 /// RAP1B / RFU, RFX7 / Fold change vs veh, RFX7 / RFU, GTPBP10 / Fold change vs veh, GTPBP10 / RFU, CNEP1R1 / Fold change vs veh, CNEP1R1 / RFU, BIVM-ERCC5 /// ERCC5 / Fold change vs veh, BIVM-ERCC5 /// ERCC5 / RFU, ILF3 / Fold change vs veh, ILF3 / RFU 11762660_at / Fold change /veh 11762660_at / RFU VCAN (11757783_s_at) / Fold change /veh VCAN (11757783_s_at) / RFU DDX43 (11728927_at) / Fold change /veh DDX43 (11728927_at) / RFU KRT8 (11758188_x_at) / Fold change /veh KRT8 (11758188_x_at) / RFU NKD1 (11759106_at) / Fold change /veh NKD1 (11759106_at) / RFU SRD5A1 (11742802_a_at) / Fold change /veh SRD5A1 (11742802_a_at) / RFU TPSAB1 /// TPSB2 (11721975_s_at) / Fold change /veh TPSAB1 /// TPSB2 (11721975_s_at) / RFU GSTM3 (11746129_a_at) / Fold change /veh GSTM3 (11746129_a_at) / RFU IL23R (11737362_x_at) / Fold change /veh IL23R (11737362_x_at) / RFU TMEM51 (11727254_a_at) / Fold change /veh TMEM51 (11727254_a_at) / RFU PIWIL2 (11732686_x_at) / Fold change /veh PIWIL2 (11732686_x_at) / RFU ORM1 (11744905_x_at) / Fold change /veh ORM1 (11744905_x_at) / RFU CCDC152 (11743942_at) / Fold change /veh CCDC152 (11743942_at) / RFU ECM1 (11717891_a_at) / Fold change /veh ECM1 (11717891_a_at) / RFU IL23R (11748794_a_at) / Fold change /veh IL23R (11748794_a_at) / RFU TNFAIP8L3 (11732012_x_at) / Fold change /veh TNFAIP8L3 (11732012_x_at) / RFU MBOAT4 (11741988_at) / Fold change /veh MBOAT4 (11741988_at) / RFU 11764193_at / Fold change /veh 11764193_at / RFU TMEM53 (11763286_at) / Fold change /veh TMEM53 (11763286_at) / RFU MAGEB2 (11727129_at) / Fold change /veh MAGEB2 (11727129_at) / RFU TMEM200A (11744735_a_at) / Fold change /veh TMEM200A (11744735_a_at) / RFU CCDC152 (11751479_a_at) / Fold change /veh CCDC152 (11751479_a_at) / RFU FAM211A (11726209_a_at) / Fold change /veh FAM211A (11726209_a_at) / RFU RGS16 (11746705_a_at) / Fold change /veh RGS16 (11746705_a_at) / RFU VCAN (11755009_s_at) / Fold change /veh VCAN (11755009_s_at) / RFU RHOB (11743442_s_at) / Fold change /veh RHOB (11743442_s_at) / RFU RGS16 (11720943_a_at) / Fold change /veh RGS16 (11720943_a_at) / RFU RGS16 (11720944_at) / Fold change /veh RGS16 (11720944_at) / RFU, VPS4B / Fold change vs veh, VPS4B / RFU, CREB1 / Fold change vs veh, CREB1 / RFU, DNAJC13 / Fold change vs veh, DNAJC13 / RFU, GNAQ / Fold change vs veh, GNAQ / RFU, CDK5R1 / Fold change vs veh, CDK5R1 / RFU, ZRANB3 / Fold change vs veh, ZRANB3 / RFU, CUL4A / Fold change vs veh, CUL4A / RFU, CCNY / Fold change vs veh, CCNY / RFU, UFL1 / Fold change vs veh, UFL1 / RFU, COG3 / Fold change vs veh, COG3 / RFU, DIAPH2 / Fold change vs veh, DIAPH2 / RFU, SKA2 / Fold change vs veh, SKA2 / RFU, AFF3 / Fold change vs veh, AFF3 / RFU, LMF1 / Fold change vs veh, LMF1 / RFU, IPO11 / Fold change vs veh, IPO11 / RFU, DFFB / Fold change vs veh, DFFB / RFU, FOXP1 / Fold change vs veh, FOXP1 / RFU, CARD8 / Fold change vs veh, CARD8 / RFU, STRN3 / Fold change vs veh, STRN3 / RFU, ADK / Fold change vs veh, ADK / RFU, RASSF2 / Fold change vs veh, RASSF2 / RFU, WIPF1 / Fold change vs veh, WIPF1 / RFU, LARP1B / Fold change vs veh, LARP1B / RFU, RASA1 / Fold change vs veh, RASA1 / RFU, RB1 / Fold change vs veh, RB1 / RFU, PPFIA1 / Fold change vs veh, PPFIA1 / RFU, MAT2A / Fold change vs veh, MAT2A / RFU, CCT5 / Fold change vs veh, CCT5 / RFU, WDR92 / Fold change vs veh, WDR92 / RFU, CUX1 / Fold change vs veh, CUX1 / RFU, TTC7A / Fold change vs veh, TTC7A / RFU, TMEM135 / Fold change vs veh, TMEM135 / RFU, DEPTOR / Fold change vs veh, DEPTOR / RFU, CPM / Fold change vs veh, CPM / RFU, DNAJB6 / Fold change vs veh, DNAJB6 / RFU, CACNA2D3 / Fold change vs veh, CACNA2D3 / RFU, DTX4 / Fold change vs veh, DTX4 / RFU, TFCP2 / Fold change vs veh, TFCP2 / RFU, GMCL1 /// GMCL1P1 / Fold change vs veh, GMCL1 /// GMCL1P1 / RFU, AEBP2 / Fold change vs veh, AEBP2 / RFU, SNHG1 /// SNORD22 /// SNORD25 /// SNORD26 /// SNORD27 /// SNORD28 /// SNORD29 /// SNORD31 / Fold change vs veh, SNHG1 /// SNORD22 /// SNORD25 /// SNORD26 /// SNORD27 /// SNORD28 /// SNORD29 /// SNORD31 / Fold change (Aza/veh), C12orf56 (ProbeSet 11735607_a_at) / Fold change (ACY-1035/veh), C12orf56 (ProbeSet 11735607_a_at) / Fold change (Aza/veh), FGFR1OP (ProbeSet 11751329_s_at) / Fold change (ACY-1035/veh), FGFR1OP (ProbeSet 11751329_s_at) / Fold change (Aza/veh), VPS36 (ProbeSet 11739960_a_at) / Fold change (ACY-1035/veh), VPS36 (ProbeSet 11739960_a_at) / RFU SYPL1 (11715823_x_at) / Fold change /veh SYPL1 (11715823_x_at) / RFU IGFBP7 (11715501_s_at) / Fold change /veh IGFBP7 (11715501_s_at) / RFU REEP3 (11722064_at) / Fold change /veh REEP3 (11722064_at) / RFU IGLL1 (11728026_x_at) / Fold change /veh IGLL1 (11728026_x_at): dose or concentration left out as unconfirmed
# Conditions: MV-4-11 cells, 48 hours
smiles,measurement,value
Nc1ncn([C@@H]2O[C@H](CO)[C@@H](O)[C@H]2O)c(=O)n1 [azacitidine],RFU SOX15 (11748057_x_at),12.99 RFU

# — PMC5218480 (PLoS ONE, 2017)
